Experimental data taken from US11927585B2, “Solvent-based inks and coatings for food contact applications” (SUN CHEMICAL CORPORATION, priority 2020, dated 2024).
Structures can show the parent of a compound that is named as a salt. One block for each compound: values may come before it.

Tests used:
[1] = source PR (EU Plastics Regulation No. 10/2011) or SO (Swiss Ordinance); EU Cube model; cited from earlier work
[2] = Worst-case calculation, Application 1 yoghurt pot lid exposure scenario; conditions: 100% migration, 2.0 g/m^2 dry film
[3] = Worst-case calculation (100% migration), standard EU Cube exposure model; conditions: for Worst-case calculation as a percentage of SML (or restriction), EU Cube / Worst Case Calculation of migration in EU Cube model (as a percentage of SML): 100% migration; for Worst-case calculation as a percentage of SML (or restriction), EU Cube: 2.0 g/m^2 dry film; for Worst Case Calculation of migration in EU Cube model (as a percentage of SML): dry coat weight 2.0 g/m^2; for Worst Case Calculation of migration in EU Cube model: Basis for Safety outcome: volatile substance
[4] = Worst-case calculation, Application 2 cheese packaging wrap exposure scenario; conditions: 100% migration, 2.0 g/m^2 dry film
[5] = substance in ink SBDEV976 (Ex. 4C Cyan)
[6] = substance in ink SBDEV977 (Ex. 4A Yellow)
[7] = substance in ink SBDEV979 (Ex. 4D Black)
[8] = substance in ink SBDEV980 (Ex. 4B Red)

Worst-case calculation as a percentage of SML (or restriction), Application 1 ([2]; product SBDEV976): 21.7 percentage of SML (or restriction) | Worst-case calculation as a percentage of SML (or restriction), Application 1 ([2]; product SBDEV977): 20.9 percentage of SML (or restriction) | Worst-case calculation as a percentage of SML (or restriction), Application 1 ([2]; product SBDEV979): 20.8 percentage of SML (or restriction) | Worst-case calculation as a percentage of SML (or restriction), Application 1 ([2]; product SBDEV980): 21.0 percentage of SML (or restriction) | Worst-case calculation as a percentage of SML (or restriction), Application 1 ([2]; product SBDEV1284): 20.73 percentage of SML (or restriction) | Worst-case calculation as a percentage of SML (or restriction), Application 1 ([2]; product SBDEV1285): 20.73 percentage of SML (or restriction) | Worst-case calculation as a percentage of SML (or restriction), Application 1 ([2]; product SBDEV1286): 20.73 percentage of SML (or restriction) | Worst-case calculation as a percentage of SML (or restriction), Application 1 ([2]; product SBDEV1287): 20.73 percentage of SML (or restriction) | Worst-case calculation as a percentage of SML (or restriction), EU Cube ([3]; product SBDEV976): 55.2 percentage of SML (or restriction) | Worst-case calculation as a percentage of SML (or restriction), EU Cube ([3]; product SBDEV977): 53.2 percentage of SML (or restriction) | Worst-case calculation as a percentage of SML (or restriction), EU Cube ([3]; product SBDEV979): 52.8 percentage of SML (or restriction) | Worst-case calculation as a percentage of SML (or restriction), EU Cube ([3]; product SBDEV980): 53.4 percentage of SML (or restriction) | Worst-case calculation as a percentage of SML (or restriction), EU Cube ([3]; product SBDEV1284): 52.8 percentage of SML (or restriction) | Worst-case calculation as a percentage of SML (or restriction), EU Cube ([3]; product SBDEV1285): 52.8 percentage of SML (or restriction) | Worst-case calculation as a percentage of SML (or restriction), EU Cube ([3]; product SBDEV1286): 52.8 percentage of SML (or restriction) | Worst-case calculation as a percentage of SML (or restriction), EU Cube ([3]; product SBDEV1287): 52.8 percentage of SML (or restriction) | Worst Case Calculation of migration in EU Cube model (as a percentage of SML) [3, 5]: 55.2 percentage of SML | Worst Case Calculation of migration in EU Cube model (as a percentage of SML) [3, 6]: 53.2 percentage of SML | Worst Case Calculation of migration in EU Cube model (as a percentage of SML) [3, 7]: 52.8 percentage of SML | Worst Case Calculation of migration in EU Cube model (as a percentage of SML) [3, 8]: 53.4 percentage of SML | Worst-case calculation as a percentage of SML (or restriction), Application 2 ([4]; product SBDEV976): 79.6 percentage of SML (or restriction) | Worst-case calculation as a percentage of SML (or restriction), Application 2 ([4]; product SBDEV977): 76.7 percentage of SML (or restriction) | Worst-case calculation as a percentage of SML (or restriction), Application 2 ([4]; product SBDEV979): 76.0 percentage of SML (or restriction) | Worst-case calculation as a percentage of SML (or restriction), Application 2 ([4]; product SBDEV980): 76.9 percentage of SML (or restriction) | Worst-case calculation as a percentage of SML (or restriction), Application 2 ([4]; product SBDEV1284): 76.01 percentage of SML (or restriction) | Worst-case calculation as a percentage of SML (or restriction), Application 2 ([4]; product SBDEV1285): 76.01 percentage of SML (or restriction) | Worst-case calculation as a percentage of SML (or restriction), Application 2 ([4]; product SBDEV1286): 76.01 percentage of SML (or restriction) | Worst-case calculation as a percentage of SML (or restriction), Application 2 ([4]; product SBDEV1287): 76.01 percentage of SML (or restriction)
Structure (SMILES): CCCCOC(=O)CC(O)(CC(=O)OCCCC)C(=O)OCCCC [0000077-94-1, Tributyl citrate]
SML or Restriction (mg substance/kg food) [1]: 0.05 mg substance/kg food

Structure (SMILES): CCCOC(C)=O [0000109-60-4, Acetic acid, propyl ester]
SML or Restriction (mg substance/kg food) [1]: 60 mg substance/kg food | Worst Case Calculation of migration in EU Cube model: Basis for Safety outcome [3, 5]: Converter | Worst Case Calculation of migration in EU Cube model: Basis for Safety outcome [3, 6]: Converter | Worst Case Calculation of migration in EU Cube model: Basis for Safety outcome [3, 7]: Converter | Worst Case Calculation of migration in EU Cube model: Basis for Safety outcome [3, 8]: Converter
